Assay: Isothermal compression of Langmuir monolayers of dendrons at the air/water interface
Format: physicochemical
Conditions: 25±0.5° C.
Description: The evaluation of anchoring capability of the dendrons at interfacial film of microbubbles was evaluated by investigating the isothermal compression of Langmuir monolayers formed by these molecules at the air/water interface. Langmuir monolayers constitute a bidimensional experimental model of the interfacial film of the nanoemulsions. In the above-mentioned experiments, the surface pressure (π) versus molecular area (A) isotherms were recorded using a Langmuir minitrough (KSV NIMA, Finland) equipped with two movable barriers (initial area: 365×75 mm^2, compression speed: 10 cm^2 min^−1, which corresponded to a reduction of the total area of ˜3.6% min^−1). π was measured using the Wilhelmy plate (paper) method. The trough was maintained at 25±0.5° C. Solutions of oligo(ethylene oxide) dendrons (1 mmol L^−1) in chloroform were spread on the surface of water (320 mL). Subsequently, 15 min was allowed for chloroform to evaporate and the film to equilibrate before compression was initiated. All the experiments were performed at least three times. Since our Langmuir trough only allowed for a surface area compression of about 10, isotherms were recorded in three separate experiments.

In the case of `CCOP(=O)(Cc1cc(CP(=O)(OCC)OCC)cc(OCCNC(=O)c2cc(OCCOCCOCCOCCOC)c(OCCOCCOCCOCCOC)c(OCCOCCOCCOCCOC)c2)c1)OCC` [DM], the “collapse pressure / surface pressure of the Langmuir monolayer” value was about 10 mN m^−1.
